In PubChem BioAssay (NCI) one finds TGI and GI50 data, which are given here for 13 compounds.

Some test systems named below: SK-MEL-2 melanoma; SW-620 colon; COLO 205 colon; TK-10 renal; MOLT-4 leukemia; SK-OV-3 ovarian; HCT-116 colon; SN12C renal; OVCAR-5 ovarian; RXF 393 renal.
Common to all, as to assay: NCI-60 cell line screen, 48 h

Structures are written as SMILES.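 1) Cells in 96-well plates. 2) Compound, 48 h, 5 concentrations. 3) Linear interpolation between surrounding doses. 4) Unreached endpoint = highest concentration. GI50 is the concentration that inhibits growth by half. TGI denotes the concentration required for complete inhibition of growth.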

In the case of `O=C(Nc1ccc(Cl)cc1)C(=O)C1=C(O)c2ccccc2OC1`, the TGI with SK-MEL-2 melanoma, with SW-620 colon, in the assay with COLO 205 colon, in the assay on TK-10 renal, in the assay on MOLT-4 leukemia and in the assay on SK-OV-3 ovarian was greater than 100 µM each time. The TGI in the assay with HCT-116 colon, in the assay on SN12C renal and in the assay on OVCAR-5 ovarian was greater than 100 µM throughout.

With `S=c1nc(/C=C/c2ccc(Cl)c(Cl)c2)[nH][nH]1`, the TGI in the assay on SK-MEL-2 melanoma, in the assay on SW-620 colon, in the assay with TK-10 renal, in the assay on MOLT-4 leukemia, in the assay with SK-OV-3 ovarian and with HCT-116 colon was greater than 100 µM throughout. The TGI with RXF 393 renal, with SN12C renal and in the assay with OVCAR-5 ovarian was greater than 100 µM in each case.

Take `C[C@@H](Oc1cc(-n2cnc3ccc(OCC4CCN(C)CC4)cc32)sc1C(N)=O)c1ccccc1C(F)(F)F`: the GI50 in the assay on SW-620 colon was 0.0648 µM; in the assay with COLO 205 colon, 0.0752 µM; in the assay on TK-10 renal it was 0.427 µM; with MOLT-4 leukemia, 0.0916 µM; with SK-OV-3 ovarian, 0.143 µM; with HCT-116 colon it was 0.0997 µM. In addition, the GI50 in the assay with RXF 393 renal is 0.0879 µM; in the assay with SN12C renal it was 0.319 µM; in the assay on OVCAR-5 ovarian, 0.114 µM. Also, the TGI in the assay on SW-620 colon amounted to 3.5 µM; with COLO 205 colon it was 0.401 µM; in the assay on TK-10 renal it was 3.98 µM; in the assay with MOLT-4 leukemia, 2.98 µM; in the assay with SK-OV-3 ovarian it was 2.25 µM; with HCT-116 colon, 3.18 µM. The TGI in the assay with RXF 393 renal is 3.32 µM; in the assay with SN12C renal, 4.28 µM; in the assay on OVCAR-5 ovarian it was 3.81 µM.

`CCN1N=CSC12C(=O)N(c1ccccc1)C(=O)N2c1ccccc1` (centres undefined): the TGI in the assay with SW-620 colon, in the assay on COLO 205 colon, in the assay on TK-10 renal, with MOLT-4 leukemia, with SK-OV-3 ovarian and in the assay with HCT-116 colon was greater than 100 µM throughout. Also, the TGI in the assay with RXF 393 renal and in the assay with SN12C renal was greater than 100 µM throughout.

On to `CCOC(=O)C12CN(C34CC5CC(CC(C5)C3)C4)CC(C(=O)OCC)(C1=O)C(c1ccccc1)OC2c1ccccc1` (centres undefined), for which the TGI with SK-MEL-2 melanoma, with SW-620 colon, in the assay on COLO 205 colon, in the assay with TK-10 renal, with MOLT-4 leukemia and in the assay on SK-OV-3 ovarian was greater than 100 µM each time. The TGI in the assay with RXF 393 renal and with OVCAR-5 ovarian was greater than 100 µM throughout.

In the case of `Cn1c(=O)c2c(nc3n2C(CCl)CO3)n(C)c1=O` (centres undefined), the TGI in the assay with SK-MEL-2 melanoma, in the assay on SW-620 colon, with COLO 205 colon, in the assay on TK-10 renal, in the assay on MOLT-4 leukemia and in the assay with SK-OV-3 ovarian was greater than 100 µM throughout. The TGI in the assay with HCT-116 colon, in the assay with SN12C renal and in the assay on OVCAR-5 ovarian was greater than 100 µM in each case.

As to `c1ccc(CNc2nc(Nc3ccc(-c4nc5ccccc5[nH]4)cc3)c3cn[nH]c3n2)cc1`, the GI50 was 2.69 µM in the assay with SW-620 colon; 1.78 µM in the assay with COLO 205 colon; 2.93 µM with TK-10 renal; 2.43 µM in the assay on MOLT-4 leukemia; 3.97 µM in the assay with SK-OV-3 ovarian; 1.74 µM with HCT-116 colon. The GI50 in the assay with RXF 393 renal is 1.57 µM; in the assay on SN12C renal, 2.75 µM; with OVCAR-5 ovarian, 2.52 µM. In addition, the TGI stood at 6.62 µM in the assay on SW-620 colon; 3.72 µM with COLO 205 colon; 8.35 µM in the assay on TK-10 renal; 6.33 µM with MOLT-4 leukemia; 17.8 µM in the assay on SK-OV-3 ovarian; 3.64 µM with HCT-116 colon. For the same compound, the TGI was found to be 3.65 µM in the assay with RXF 393 renal, 7.37 µM in the assay with SN12C renal and 6.86 µM in the assay on OVCAR-5 ovarian.

As for `CC(=O)NNc1nc(C)c(C(/C=C/c2ccc3c(c2)OCO3)=N/NC(=O)c2ccncc2)s1`, the TGI in the assay on SK-MEL-2 melanoma, in the assay with SW-620 colon, with TK-10 renal, in the assay on MOLT-4 leukemia, with SK-OV-3 ovarian and in the assay on HCT-116 colon was greater than 100 µM throughout. In addition, the TGI in the assay with RXF 393 renal, with SN12C renal and in the assay with OVCAR-5 ovarian was greater than 100 µM in each case.

Regarding `CCCCCNC(=O)C1C(=O)N(CCCCC)C(=O)/C1=N\N` (centres undefined), the TGI with SK-MEL-2 melanoma is 86.2 µM; with SW-620 colon it was greater than 100 µM; in the assay on COLO 205 colon it was greater than 100 µM; in the assay with TK-10 renal it was greater than 100 µM; in the assay on MOLT-4 leukemia it was greater than 100 µM; in the assay on SN12C renal, greater than 100 µM. In the assay with OVCAR-5 ovarian, this compound showed a TGI greater than 100 µM.

Take `NC(=NCc1ccccc1)N/N=C\c1ccnc2ccccc12`: the TGI in the assay on SK-MEL-2 melanoma came out at 22.1 µM; in the assay with SW-620 colon, 31.2 µM; in the assay on COLO 205 colon, 3.21 µM; with TK-10 renal it was 32.1 µM; with MOLT-4 leukemia, 46 µM; with SK-OV-3 ovarian it was 29.7 µM. The TGI with SN12C renal came out at 29.6 µM; with OVCAR-5 ovarian, 32.7 µM.

As for `CC1(C)CC(C2CC(C)(C)CC(C)(C)[C@H]2O)[C@@H](O)C(C)(C)C1` (some centres undefined), the TGI with SW-620 colon, in the assay with COLO 205 colon, in the assay with TK-10 renal, in the assay with MOLT-4 leukemia, in the assay with SK-OV-3 ovarian and with HCT-116 colon was greater than 100 µM each time. In the assay on SN12C renal, the TGI was greater than 100 µM.

`Cc1ccc(S(=O)(=O)OC(C=O)C(O)C(O)COC(c2ccccc2)(c2ccccc2)c2ccccc2)cc1` (centres undefined): the TGI with SK-MEL-2 melanoma was found to be 29.9 µM; in the assay on SW-620 colon, 35.2 µM; with MOLT-4 leukemia, 46.5 µM; in the assay on SK-OV-3 ovarian, 28.4 µM; with HCT-116 colon, 30.5 µM; in the assay with RXF 393 renal, 30.3 µM. Further, the TGI in the assay on SN12C renal amounted to 28.9 µM; in the assay with OVCAR-5 ovarian it was 34.7 µM.

For `Cc1nc(N=C(N)N)nc2ccc3ccccc3c12`, the GI50 in the assay on SK-MEL-2 melanoma was 1.72 µM; in the assay with SW-620 colon, 0.897 µM; with COLO 205 colon it was 1.13 µM; in the assay with MOLT-4 leukemia, 1.37 µM; in the assay with SK-OV-3 ovarian, 1.92 µM; in the assay with HCT-116 colon, 1.12 µM. Moreover, the GI50 is 0.49 µM in the assay with SN12C renal and 2.29 µM with OVCAR-5 ovarian. Also, the TGI in the assay with SK-MEL-2 melanoma was determined as 3.37 µM; in the assay with SW-620 colon, 10.3 µM; in the assay on COLO 205 colon, 3.13 µM; in the assay with MOLT-4 leukemia, 3.62 µM; in the assay with SK-OV-3 ovarian, 6.85 µM; with HCT-116 colon, 4.82 µM. Besides, the TGI in the assay with SN12C renal is 3.84 µM; in the assay with OVCAR-5 ovarian it was 7.52 µM.
